Paper PMC8691750, “Euphorbia Factor L2 ameliorates the Progression of K/BxN Serum-Induced Arthritis by Blocking TLR7 Mediated IRAK4/IKKβ/IRF5 and NF-kB Signaling Pathways” (Frontiers in Pharmacology, 2021)
“And” between values parts separate entries of the source, which are not always exact repeats. Equal entries are not always repeated.

Test system: TLR signalling pathway genes
Experiment: Toll-like Receptor Pathway PCR array of ankles
Assay type: in vivo, C57BL/6 mice
Conditions: for S40/SIA (fold change) / log2(fold change) S40/SIA: S40 group vs SIA group
Method: Total RNA was isolated from the right ankles using the TRIzol Reagent (Invitrogen) and purified with RNeasy Mini Kit and RNase-Free DNase Set (Qiagen). RNA quality was determined using a spectrophotometer and was reversely transcribed using Wcgene® mRNA cDNA kit. The complementary DNA was used on the Toll-like Receptor Pathway PCR Array plate (Wcgene® biotech, China).

Structure (SMILES): C=C1C(OC(=O)c2ccccc2)CC2C(C=C(C)C(=O)C3(OC(C)=O)CC(C)C(OC(=O)c4ccccc4)C3C1OC(C)=O)C2(C)C (stereo not shown) [EFL2, Euphorbia factor L2]
- fold-GAPDH, ACTB (ACTB mRNA relative to GAPDH (内参-GAPDH), individual mice of EFL2 group (S401, S402, S404, S405 = EFL2-1 to -4)): 1.058 and 1.072 and 0.8044
- fold-GAPDH, B2M (B2M mRNA relative to GAPDH, individual mice of EFL2 group (S401, S402, S404, S405)): 0.312 and 0.4388 and 0.3402 and 0.1942
- fold-GAPDH, Becn1 (Becn1 mRNA relative to GAPDH, individual mice of EFL2 group (S401, S402, S404, S405)): 0.001891 and 0.007192 and 0.004096
- S40/SIA (fold change) (Becn1 mRNA): 0.2727
- log2(fold change) S40/SIA (Becn1 mRNA): -1.875
- fold-GAPDH, Btk (Btk mRNA relative to GAPDH, individual mice of EFL2 group (S401, S402, S404, S405)): 0.002403 and 0.001831 and 0.004678 and 0.001063
- S40/SIA (fold change) (Btk mRNA): 0.3155
- log2(fold change) S40/SIA (Btk mRNA): -1.664
- fold-GAPDH, Casp8 (Casp8 mRNA relative to GAPDH, individual mice of EFL2 group (S401, S402, S404, S405)): 0.01634 and 0.01358 and 0.009475
- S40/SIA (fold change) (Casp8 mRNA): 0.2393
- log2(fold change) S40/SIA (Casp8 mRNA): -2.063
- fold-GAPDH, Ccl2 (Ccl2 mRNA relative to GAPDH, individual mice of EFL2 group (S401, S402, S404, S405)): 0.01529 and 0.00629 and 0.0002036
- S40/SIA (fold change) (Ccl2 mRNA): 0.0326
- log2(fold change) S40/SIA (Ccl2 mRNA): -4.939
- fold-GAPDH, Ccl11 (Ccl11 mRNA relative to GAPDH, individual mice of EFL2 group (S401, S402, S404, S405)): 0.01036 and 0.008836 and 0.01327 and 0.005579
- S40/SIA (fold change) (Ccl11 mRNA): 1.864
- log2(fold change) S40/SIA (Ccl11 mRNA): 0.8985
- fold-GAPDH, Ccl20 (Ccl20 mRNA relative to GAPDH, individual mice of EFL2 group (S401, S402, S404, S405)): 3.719e-5 and 0.0001299
- fold-GAPDH, Cd14 (Cd14 mRNA relative to GAPDH, individual mice of EFL2 group (S401, S402, S404, S405)): 0.005751 and 0.00806 and 0.003038 and 0.001749
- fold-GAPDH, Cd80 (Cd80 mRNA relative to GAPDH, individual mice of EFL2 group (S401, S402, S404, S405)): 0.002341 and 0.005041 and 0.0008698
- fold-GAPDH, Cd86 (Cd86 mRNA relative to GAPDH, individual mice of EFL2 group (S401, S402, S404, S405)): 0.0007215 and 0.0005777 and 0.0007714 and 0.0003428
- S40/SIA (fold change) (Cd86 mRNA): 0.1925
- log2(fold change) S40/SIA (Cd86 mRNA): -2.3771
- fold-GAPDH, Chuk (Chuk mRNA relative to GAPDH, individual mice of EFL2 group (S401, S402, S404, S405)): 0.008767 and 0.01087 and 0.008829
- S40/SIA (fold change) (Chuk mRNA): 0.3313
- log2(fold change) S40/SIA (Chuk mRNA): -1.594
- fold-GAPDH, Clec4e (Clec4e mRNA relative to GAPDH, individual mice of EFL2 group (S401, S402, S404, S405)): 0.0002637 and 0.002249 and 0.0004993 and 4.1493e-5
- S40/SIA (fold change) (Clec4e mRNA): 0.0859
- log2(fold change) S40/SIA (Clec4e mRNA): -3.541
- fold-GAPDH, Cxcl10 (Cxcl10 mRNA relative to GAPDH, individual mice of EFL2 group (S401, S402, S404, S405)): 2.1064e-5
- S40/SIA (fold change) (Cxcl10 mRNA): 0.002337
- log2(fold change) S40/SIA (Cxcl10 mRNA): -8.741
- fold-GAPDH, Eif2ak2 (Eif2ak2 mRNA relative to GAPDH, individual mice of EFL2 group (S401, S402, S404, S405)): 0.004437 and 0.00565 and 0.003196
- fold-GAPDH, Elk1 (Elk1 mRNA relative to GAPDH, individual mice of EFL2 group (S401, S402, S404, S405)): 0.006009 and 0.005652 and 0.006734 and 0.002589
- S40/SIA (fold change) (Elk1 mRNA): 0.3565
- log2(fold change) S40/SIA (Elk1 mRNA): -1.488
- fold-GAPDH, Fadd (Fadd mRNA relative to GAPDH, individual mice of EFL2 group (S401, S402, S404, S405)): 0.001977 and 0.0009207 and 0.00158 and 0.0009332
- S40/SIA (fold change) (Fadd mRNA): 0.1995
- log2(fold change) S40/SIA (Fadd mRNA): -2.325
- fold-GAPDH, Fos (Fos mRNA relative to GAPDH, individual mice of EFL2 group (S401, S402, S404, S405)): 0.02349 and 0.0137 and 0.0143 and 0.009915
- fold-GAPDH, HPRT1 (HPRT1 mRNA relative to GAPDH, individual mice of EFL2 group (S401, S402, S404, S405)): 0.01241 and 0.008273 and 0.01631
- fold-GAPDH, Hmgb1 (Hmgb1 mRNA relative to GAPDH, individual mice of EFL2 group (S401, S402, S404, S405)): 0.3089 and 0.3274 and 0.2681 and 0.1726
- fold-GAPDH, Hras1 (Hras1 mRNA relative to GAPDH, individual mice of EFL2 group (S401, S402, S404, S405)): 0.02419 and 0.02746 and 0.02268 and 0.01475
- S40/SIA (fold change) (Hras1 mRNA): 0.4915
- log2(fold change) S40/SIA (Hras1 mRNA): -1.025
- fold-GAPDH, Hspa1a (Hspa1a mRNA relative to GAPDH, individual mice of EFL2 group (S401, S402, S404, S405)): 0.03203 and 0.003543 and 0.006228
- fold-GAPDH, Hspd1 (Hspd1 mRNA relative to GAPDH, individual mice of EFL2 group (S401, S402, S404, S405)): 0.02796 and 0.02518 and 0.003019 and 0.01313
- S40/SIA (fold change) (Hspd1 mRNA): 0.2339
- log2(fold change) S40/SIA (Hspd1 mRNA): -2.096
- fold-GAPDH, IRF5 (IRF5 mRNA in ankles of STA mice, relative to GAPDH, one value per animal (samples S401-S405)): 0.004631 and 0.004692 and 0.004033 and 0.001353
- S40/SIA (fold change) (IRF5 mRNA): 0.3677
- log2(fold change) S40/SIA (IRF5 mRNA): -1.443
- fold-GAPDH, Ikbkb (Ikbkb mRNA relative to GAPDH, individual mice of EFL2 group (S401, S402, S404, S405)): 0.009029 and 0.01266 and 0.01025 and 0.004561
- fold-GAPDH, Il1a (Il1a mRNA relative to GAPDH, individual mice of EFL2 group (S401, S402, S404, S405)): 0.0002392 and 0.0002831 and 9.48e-5
- fold-GAPDH, Il1b (Il1b mRNA relative to GAPDH, individual mice of EFL2 group (S401, S402, S404, S405)): 0.005996 and 0.0009616 and 0.0008 and 0.0006699
- S40/SIA (fold change) (Il1b mRNA): 0.0229
- log2(fold change) S40/SIA (Il1b mRNA): -5.448
- fold-GAPDH, Il6 (Il6 mRNA relative to GAPDH, individual mice of EFL2 group (S401, S402, S404, S405)): 0.002971 and 0.0008677 and 0.0003997 and 0.0006556
- S40/SIA (fold change) (Il6 mRNA): 0.03478
- log2(fold change) S40/SIA (Il6 mRNA): -4.845
- fold-GAPDH, Il6ra (Il6ra mRNA in ankles of STA mice, relative to GAPDH, one value per animal (samples S401-S405)): 0.009397 and 0.01121 and 0.004741
- fold-GAPDH, Il10 (Il10 mRNA relative to GAPDH, individual mice of EFL2 group (S401, S402, S404, S405)): 0.0001425 and 0.0002257 and 7.048e-5 and 9.932e-5
- S40/SIA (fold change) (Il10 mRNA): 0.2443
- log2(fold change) S40/SIA (Il10 mRNA): -2.033
- fold-GAPDH, Il12a (Il12a mRNA relative to GAPDH, individual mice of EFL2 group (S401, S402, S404, S405)): 0.001377 and 0.0005874 and 0.0009712 and 0.0002213
- fold-GAPDH, Ilr1 (Ilr1 mRNA in ankles of STA mice, relative to GAPDH, one value per animal (samples S401-S405)): 0.01383 and 0.01561 and 0.01023 and 0.00774
- S40/SIA (fold change) (Ilr1 mRNA): 0.09556
- log2(fold change) S40/SIA (Ilr1 mRNA): -3.388
- fold-GAPDH, Irak1 (Irak1 mRNA in ankles of STA mice, relative to GAPDH, one value per animal (samples S401-S405)): 0.02263 and 0.02515 and 0.01545 and 0.008286
- fold-GAPDH, Irak2 (Irak2 mRNA in ankles of STA mice, relative to GAPDH, one value per animal (samples S401-S405)): 0.003024 and 0.004831 and 0.004355 and 0.002516
